Assay results published in the supplement of paper PMC10307832.

Key:
Assay in all cases: relative viability (nuclei count vs DMSO), 5 days (fraction); higher = more cells survive
[1] = compound: C1=CC=C2C(=C1)C=CC(=C2SSC3=C(C=CC4=CC=CC=C43)O)O [IPA-3] + CCNC(=O)c1noc(-c2cc(C(C)C)c(O)cc2O)c1-c1ccc(CN2CCOCC2)cc1 [Luminespib] (partner 0.01 µM)
Method in brief: (§1)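 Lung cancer cell lines were seeded in 1536-well plates and dosed by pin tool the next day, with either a single drug or a fixed anchor-drug dose combined with five library-drug doses (not always all listed) spaced in √10 steps. Five days later, one step fixed the cells and stained their nuclei (final 0.05% Triton X-100, 1% formaldehyde, 1 ug/ml Hoechst), and nuclei were counted on 4× images. Relative viability is the nuclei count in treated wells divided by the count in vehicle wells, and each value is the median of duplicate plates.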

[2] = compound: C1=CC=C2C(=C1)C=CC(=C2SSC3=C(C=CC4=CC=CC=C43)O)O [IPA-3] + CS(=O)(=O)CCNCc1ccc(-c2ccc3ncnc(Nc4ccc(OCc5cccc(F)c5)c(Cl)c4)c3c2)o1 [Lapatinib] (partner 2 µM)
Method in brief: as §1

[3] = compound: C1=CC=C2C(=C1)C=CC(=C2SSC3=C(C=CC4=CC=CC=C43)O)O [IPA-3] + NC(=O)Nc1cc(-c2cccc(F)c2)sc1C(=O)N[C@H]1CCCNC1 [AZD7762] (partner 0.2 µM)
Method in brief: as §1

[4] = compound: Cn1c(Nc2ccc(C(F)(F)F)cc2)nc2cc(Oc3ccnc(-c4ncc(C(F)(F)F)[nH]4)c3)ccc21 [RAF265] + CS(=O)(=O)N1CCN(Cc2cc3nc(-c4cccc5[nH]ncc45)nc(N4CCOCC4)c3s2)CC1 [Pictilisib] (partner 1 µM)
Method in brief: as §1

Row | Cell Line | relative viability ([1]; first compound 0.2 µM) | relative viability ([1]; first compound 0.6325 µM) | relative viability ([1]; first compound 2 µM) | relative viability ([1]; first compound 6.325 µM) | relative viability ([1]; first compound 20 µM) | relative viability ([2]; first compound 0.2 µM) | relative viability ([2]; first compound 0.6325 µM) | relative viability ([2]; first compound 2 µM) | relative viability ([2]; first compound 6.325 µM) | relative viability ([2]; first compound 20 µM) | relative viability ([3]; first compound 0.2 µM) | relative viability ([3]; first compound 0.6325 µM) | relative viability ([3]; first compound 2 µM) | relative viability ([3]; first compound 6.325 µM) | relative viability ([3]; first compound 20 µM) | relative viability ([4]; first compound 0.01 µM) | relative viability ([4]; first compound 0.03162 µM) | relative viability ([4]; first compound 0.1 µM) | relative viability ([4]; first compound 0.3162 µM) | relative viability ([4]; first compound 1 µM)
1 | NCI-H727 | 0.318 | 1.29 | 0.755 | 0.33 | 0.24 | 1.15 | 0.832 | 0.915 | 0.952 | 0.796 | 0.652 | 0.604 | 0.674 | 0.617 | 0.706 | 0.546 | 0.302 | 0.325 | 0.252 | 0.22
2 | LCLC-97TM1 | 0.99 | 0.733 | 0.608 | 0.855 | 0.783 | 1.14 | 1.03 | 1.13 | 0.938 | 0.937 | 0.356 | 0.205 | 0.307 | 0.251 | 0.247 | 0.177 | 0.172 | 0.112 | 0.145 | 0.107
3 | BEN | 0.387 | 0.439 | 0.386 | 0.576 | 0.472 | 0.749 | 0.673 | 0.832 | 0.735 | 0.677 | 0.726 | 0.656 | 0.801 | 0.767 | 0.672 | 0.627 | 0.696 | 0.69 | 0.625 | 0.55
4 | LC-2-ad | 1.21 | 1.06 | 1.07 | 1.04 | 1.05 | 1.04 | 1 | 1.04 | 0.961 | 1.09 | 0.896 | 0.873 | 0.899 | 0.897 | 0.96 | 0.441 | 0.361 | 0.223 | 0.171 | 0.0927
5 | ABC-1 | 0.723 |  | 0.573 |  | 0.29 | 1.1 | 1.06 | 1.23 | 1.37 | 1.29 | 0.888 | 0.766 | 0.737 | 0.992 | 0.965 | 0.808 | 0.58 | 0.608 | 0.525 | 0.458
6 | NCI-H647 | 0.192 | 0.148 | 0.176 | 0.142 | 0.102 | 1.71 | 1.02 | 0.876 | 0.335 | 0.0724 | 0.675 | 0.408 | 0.555 | 0.402 | 0.0953 | 0.38 | 0.342 | 0.383 | 0.259 | 0.208
7 | NCI-H1755 | 0.447 | 0.421 | 0.416 | 0.479 | 0.597 | 1.11 | 0.988 | 1.05 | 1.06 | 1.17 | 0.55 | 0.448 | 0.434 | 0.486 | 0.476 | 0.47 | 0.287 | 0.264 | 0.238 | 0.148
8 | EPLC-272H | 0.469 | 0.473 | 0.352 | 0.416 | 0.553 | 1.01 | 1.01 | 0.915 | 0.881 | 1.04 | 0.185 | 0.204 | 0.218 | 0.234 | 0.16 | 0.35 | 0.349 | 0.311 | 0.237 | 0.191
